Counter-ions that a name gives are not always drawn.
| Structure (SMILES) | melting point |
| --- | --- |
| O=C1Nc2ccc(S(=O)(=O)N3CCN(C(=O)C4CCCCC4)CC3)cc2C1=C1CCCC1 (as salt: hydrochloride) [9b, 5-((4-(Cyclohexanecarbonyl)piperazin-1-yl)sulfonyl)-3-cyclopentylideneindolin-2-one] | 140 to 145 °C |
| O=C1Nc2ccc(S(=O)(=O)N3CCN(C(=O)C4CC4)CC3)cc2C1=C1CCCC1 (as salt: hydrochloride) [9c, 3-Cyclopentylidene-5-((4-(cyclopropanecarbonyl)piperazin-1-yl)sulfonyl)indolin-2-one] | 136 to 142 °C |
| CCCCC(=O)N1CCN(S(=O)(=O)c2ccc3c(c2)C(=C2CCCC2)C(=O)N3)CC1 (as salt: hydrochloride) [9h, 3-Cyclopentylidene-5-((4-pentanoylpiperazin-1-yl)sulfonyl)indolin-2-one] | 130 to 135 °C |
| O=C1Nc2ccc(S(=O)(=O)N3CCN(C(=O)c4cccnc4)CC3)cc2C1=C1CCCC1 (as salt: hydrochloride) [9i, 3-Cyclopentylidene-5-((4-nicotinoylpiperazin-1-yl)sulfonyl)indolin-2-one] | 195 to 200 °C |
| O=C1Nc2ccc(S(=O)(=O)N3CCN(C(=O)c4cccc(C(F)(F)F)c4)CC3)cc2C1=C1CCCC1 (as salt: hydrochloride) [9j, 3-Cyclopentylidene-5-((4-(3-(trifluoromethyl)benzoyl)piperazin-1-yl)sulfonyl)indolin-2-one] | 139 to 143 °C |

Continued, values first:

| melting point | Structure (SMILES) |
| --- | --- |
| 135 to 140 °C | O=C1Nc2ccc(S(=O)(=O)N3CCN(C(=O)c4ccccc4)CC3)cc2C1=C1CCCC1 (as salt: hydrochloride) [9d, 5-((4-Benzoylpiperazin-1-yl)sulfonyl)-3-cyclopentylideneindolin-2-one] |
| 133 to 138 °C | O=C1Nc2ccc(S(=O)(=O)N3CCN(C(=O)c4cccc(Cl)c4)CC3)cc2C1=C1CCCC1 (as salt: hydrochloride) [9e, 5-((4-(3-Chlorobenzoyl)piperazin-1-yl)sulfonyl)-3-cyclopentylideneindolin-2-one] |
| 130 to 135 °C | O=C1Nc2ccc(S(=O)(=O)N3CCN(C(=O)c4cccc(Br)c4)CC3)cc2C1=C1CCCC1 (as salt: hydrochloride) [9f, 5-((4-(3-Bromobenzoyl)piperazin-1-yl)sulfonyl)-3-cyclopentylideneindolin-2-one] |
| 132 to 135 °C | O=C1Nc2ccc(S(=O)(=O)N3CCN(C(=O)c4cccc(F)c4)CC3)cc2C1=C1CCCC1 (as salt: hydrochloride) [9g, 3-Cyclopentylidene-5-((4-(3-fluorobenzoyl)piperazin-1-yl)sulfonyl)indolin-2-one] |

Source: publication PMC10882696, “Novel 5-Substituted Oxindole Derivatives as Bruton’s Tyrosine Kinase Inhibitors: Design, Synthesis, Docking, Molecular Dynamics Simulation, and Biological Evaluation” (ACS Omega, 2024)
